This passage reports IC50 and CC50 results from patent publication US20030236302A1, “Synthetic derivatives” (priority 2002, published 2003).

One series concerns TNFα. The series is described as follows: TNFα production in IFN-primed, SAC-stimulated THP-1 cells (ELISA). Particulars: THP-1 cells primed by IFNα (100 U/mL) 22 h, stimulated with 0.025% SAC, supernatants after 24 h. The series is classed as cell-based, Human. The procedure: (§1) Human monocytic THP-1 cells were primed by IFNα (100 U/mL) for 22 h and then stimulated with 0.025% SAC in the presence of different concentrations of a test compound. The test compounds were prepared in DMSO and the final DMSO concentration was adjusted to 0.25% in all cell cultures, including the compound-free control. Supernatants from the cultures were removed after 24 h, and assayed for productions of IL-12 and […]. Cell viability was assessed using the bioreduction of MTS [3-(4,5-dimethylthiazol-2-yl)-5-(3-carboxymethoxyphenyl)-2-(4-sulfophenyl)-2H-tetrazolium] (Promega, Madison, Wis.), with cell survival estimated as the ratio of the absorbance in compound-treated groups versus compound-free control. Human IL-12 p70 (heterodimer) and TNFα were assayed using ELISA kit from Endogen (Cambridge, Mass.), according to the manufacturer's instructions.
Background: ELISA stands for enzyme-linked immunosorbent assay.

Series [1] relates to Human IL-12 p70 (heterodimer). The series is described as follows: IL-12 production in IFN-primed, SAC-stimulated THP-1 cells (ELISA). The series is classed as cell-based. The conditions noted are these: THP-1 cells primed by IFNα (100 U/mL) 22 h, stimulated with 0.025% SAC, supernatants after 24 h. As for the experimental part:
as §1

The nature of series [2]: Cell viability by MTS bioreduction. Type of series: cell-based, Human. Particulars: human, THP-1 monocytic cells (IFNα-primed, SAC-stimulated), THP-1 cells, survival vs compound-free control, read-out: CC50 (μM) Cell Toxicity. The procedure: as §1
The subject of series [3] is Human monocytic THP-1 cells. The series is described as follows: Cell viability by MTS bioreduction. Type of series: cell-based. The conditions noted are these: survival vs compound-free control, read-out: CC50 (μM) Cell Toxicity. The procedure:
as §1

The structures appear in SMILES notation. Where only a bound is given, the exact number is not on record here.

The term IC50 denotes the concentration that gives 50% inhibition. Low readings indicate inhibition by little substance, high ones a need for much substance. The term CC50 denotes the concentration at which the toxic effect on the cells reaches its halfway point.

With `O=C1CC(=O)O[C@@H](CCc2ccccc2)C1` [Compound 1, S-(+)-6-Phenethyl-dihydro-pyran-2,4-dione], the results for the IC50 (with TNFα (Homo sapiens); in series [1] (Homo sapiens)) were 40 µM and 30 µM, respectively. Moreover, in series [2], the 50% cytotoxic concentration (CC50) at 24 h was more than 100 µM.
For `O=C1CC(=O)O[C@@H](CCc2ccc(F)cc2)C1` [Compound 2, 6-[2-(4-Fluoro-phenyl)-ethyl]-dihydro-pyran-2,4-dione], in that order: 30 µM, 30 µM and more than 100 µM.
For the compound `O=C1CC(=O)O[C@@H](CCc2ccccc2F)C1` [Compound 3, (S)-6-[2-(2-fluoro-phenyl)-ethyl]-dihydro-pyran-2,4-dione], the IC50 in the series with TNFα (Homo sapiens) amounted to 40 µM; in series [1] (Homo sapiens), 70 µM.
On to `O=C1CC(=O)O[C@@H](CCc2cccc(F)c2)C1` [Compound 4, (S)-6-[2-(3-Fluoro-phenyl)-ethyl]-dihydro-pyran-2,4-dione], for which the half-maximal inhibitory concentration (IC50) in the series on TNFα (Homo sapiens) stood at 20 µM; in series [1] (Homo sapiens), 40 µM. Further, in series [2], the 50% cytotoxic concentration (CC50) at 24 h was more than 100 µM.
For the compound `O=C1C=C(O)CC(/C=C/c2cccnc2)O1` (stereo not shown) [Compound 5, 6-(2-pyridin-3-yl-vinyl)-dihydro-pyran-2,4-one], the half-inhibitory concentration (IC50) in the series with TNFα (Homo sapiens) was found to be 100 µM; in series [1] (Homo sapiens), 80 µM. In addition, in series [2], the CC50 at 24 h is more than 100 µM.
For `COC1=CC(=O)OC(CCc2ccc[nH]2)C1` (stereo not shown) [Compound 6, 4-Methoxy-6-[2-(1H-pyrrol-2-yl)-ethyl]-5,6-dihydro-pyran-2-one], in that order: 100 µM, 70 µM and more than 100 µM.
In the case of `COC1=CC(=O)O[C@@H](CCc2ccccc2F)C1` [Compound 7, (S)-6-[2-(2-Fluoro-phenyl)-ethyl]-4-methoxy-5,6-dihydro-pyran-2-one], the values for the IC50 (in the series on TNFα (Homo sapiens); in series [1] (Homo sapiens)) were 62 µM and 38 µM, respectively. For the same compound, the CC50 at 24 h in series [2] was more than 100 µM.
In the same order, the values of `COC1=CC(=O)O[C@@H](CCc2cccc(F)c2)C1` [Compound 8, (S)-6-[2-(3-Fluoro-phenyl)-ethyl]-4-methoxy-5,6-dihydro-pyran-2-one] are 70 µM, 65 µM and more than 100 µM.
With `COC1=CC(=O)O[C@@H](CCc2ccc(F)cc2)C1` [Compound 9, (S)-6-[2-(4-Fluoro-phenyl)-ethyl]-4-methoxy-5,6-dihydro-pyran-2-one], the IC50 came to 100 µM in the series with TNFα (Homo sapiens) and 86 µM in series [1] (Homo sapiens). Besides, in series [2], the cytotoxic concentration (CC50) at 24 h was more than 100 µM.
Regarding `O=C1C=CC[C@H](CCc2ccccc2)O1` [Compound 10, (S)-6-Phenethyl-5,6-dihydro-pyran-2-one], the figures for the concentration for half-maximal inhibition (IC50) (in the series on TNFα (Homo sapiens); in series [1] (Homo sapiens)) were 13 µM and 10 µM, respectively. For the same compound, the CC50 at 24 h in series [2] came out at 100 µM.
On to `O=C1C=CC[C@H](CCc2cccc(F)c2)O1` [Compound 11, S-6-[2-(3-Fluoro-phenyl)-ethyl]-5,6-dihydro-pyran-2-one], for which the IC50 amounted to 5 µM in the series on TNFα (Homo sapiens) and 10 µM in series [1] (Homo sapiens). In series [2], the cytotoxic concentration (CC50) at 24 h came out at 100 µM.
Consider `COc1cc(CC[C@H]2CC=CC(=O)O2)cc(OC)c1OC` [Compound 12, S-6-[2-(3,4,5-trimethoxylphenyl)-ethyl]-5,6-dihydro-pyran-2-one], for which the concentration for half-maximal inhibition (IC50) turned out to be 25 µM with TNFα (Homo sapiens) and 10 µM in series [1] (Homo sapiens). The CC50 at 24 h in series [2] turned out to be 100 µM.
Regarding `COC1=CC(=O)OC(C=Cc2ccc(C#N)cc2)C1` (stereo not shown) [Compound 13, 6-[2-(4-cyano-phenyl)-vinyl]-4-methoxy-5,6-dihydro-pyan-2-one], the half-maximal inhibitory concentration (IC50) in series [1] came to 80 µM. Besides, the CC50 in series [3] was more than 100 µM.
Consider `COC1=CC(=O)OC(/C=C/c2ccc(F)c(F)c2)C1` (stereo not shown) [Compound 14, 6-[2-(3,4-difluoro-phenyl)-vinyl]-4-methoxy-5,6-dihydro-pyan-2-one], for which the IC50 (with TNFα (Homo sapiens); in series [1] (Homo sapiens)) was 70 µM in each case. Also, the CC50 at 24 h in series [2] was more than 100 µM.
As for `COC1=CC(=O)OC(/C=C/c2ccc(F)c(F)c2F)C1` (stereo not shown) [Compound 15], the IC50 in the series with TNFα (Homo sapiens) worked out at 60 µM; in series [1] (Homo sapiens), 90 µM. Further, the CC50 at 24 h in series [2] was more than 100 µM.
For `COC(=O)c1ccc(CCC2CC(OC)=CC(=O)O2)cc1` (stereo not shown) [Compound 16, 4-[2-(4-methoxy-6-oxo-3,6-dihydro-2H-pyran-2-yl)-ethyl]-benzoic acid methyl ester], the IC50 (with TNFα (Homo sapiens); in series [1] (Homo sapiens)) was 80 µM in each case. Further, the half-maximal cytotoxic concentration (CC50) at 24 h in series [2] is more than 100 µM.
On to `COC1=CC(=O)OC(CCc2ccc(F)c(F)c2)C1` (stereo not shown) [Compound 17, 6-[2-(3,4-difluoro-phenyl)-ethyl]-4-methoxy-5,6-dihydro-pyan-2-one], for which the IC50 (in the series on TNFα; in series [1]) was 80 µM in each case. In addition, the cytotoxic concentration (CC50) in series [3] was more than 100 µM.
Turning to `COC1=CC(=O)OC(CCc2ccc(F)cc2)C1` (stereo not shown) [Compound 18, 6-[2-(4-fluoro-phenyl)-ethyl]-4-methoxy-5,6-dihydro-pyan-2-one], the IC50 with TNFα is 70 µM; in series [1], 80 µM. In series [3], the CC50 was more than 100 µM.
With `CC(C)OC1=CC(=O)O[C@@H](CCc2ccccc2)C1` [Compound 19, S-(+)-4-isopropoxy-6-phenethyl-5,6-dihydro-pyran-2-one], the IC50 (in the series on TNFα (Homo sapiens); in series [1] (Homo sapiens)) was 70 µM each time. Also, the CC50 at 24 h in series [2] was more than 100 µM.
For `CCOC1=CC(=O)O[C@@H](CCc2ccccc2)C1` [Compound 20, (S)-4-Ethoxy-6-phenethyl-5,6-dihydro-pyran-2-one], the IC50 turned out to be 100 µM in the series on TNFα (Homo sapiens) and 80 µM in series [1] (Homo sapiens). For the same compound, the CC50 at 24 h in series [2] is more than 100 µM.
In the same order, the values of `COC1=CC(=O)O[C@@H](CCc2cccnc2)C1` [Compound 21, 4-Methoxy-6-(2-pyridin-3-yl-ethyl)-5,6-dihydro-pyran-2-one] are 80 µM, 100 µM and more than 100 µM.
